Results reported in patent publication US8987195B2 (priority 2012, dated 2015).
Like-named read-outs stand apart in the source and are kept apart here.

Experiments:
[1] = rcm bond, Zhan's catalyst, DCE
HCV genotype 1b replicon = assay: HCV replicon assay, genotype 1b replicon EC50; format: cell-based, Hepatitis C virus; conditions: Hepatitis C virus, HCV replicon, genotype 1b, read-out: EC50 [gt-1b]
Outline: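 Cells harbouring a stable replicon are grown under G418 selection, then plated with test compound in G418-free medium for 24-48 hours. After washing and lysis, RNA or luciferase signal is measured and expressed as percent of DMSO control to give EC50.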

[2] = target: HCV NS3/4A protease genotype 1b (Hepatitis C virus genotype 1b, UniProt P26663); assay: HCV NS3/4A protease time-resolved fluorescence (TRF) assay, Ki against genotype 1b; format: biochemical; conditions: IC50 [gt-1b], NS3/4A protease TRF assay, genotype 1b enzyme 0.2 nM
Outline: (§1)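 Ki values come from IC50 fits corrected for substrate concentration and KM. The time-resolved fluorescence protease reaction used 25 nM peptide substrate, 2.5 h, room temperature, pH 7.5 HEPES buffer, after 30 min enzyme–inhibitor preincubation.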

[3] = target: HCV NS3/4A protease A156T mutant (Hepatitis C virus genotype 1b, UniProt P26663, A1182T); assay: HCV NS3/4A protease time-resolved fluorescence (TRF) assay, Ki against A156T mutant; format: biochemical; conditions: NS3/4A protease TRF assay, A156T mutant enzyme 0.4 nM, read-out: IC50 [gt-1b A156T]
Outline: as §1

[4] = target: HCV NS3/4A protease genotype 3a (Hepatitis C virus genotype 3a, UniProt Q81495); assay: HCV NS3/4A protease time-resolved fluorescence (TRF) assay, Ki against genotype 3a; format: biochemical
Outline: as §1

| SMILES | EC50 (HCV genotype 1b replicon) [nM] | IC50 [2] [pM] | IC50 [3] [nM] | IC50 [4] [nM] | also measured |
| --- | --- | --- | --- | --- | --- |
| CC(C)(C)OC(=O)N[C@H]1CCCCCC=C[C@@H]2C[C@@]2(C(=O)NS(=O)(=O)C2(C)CC2)NC(=O)[C@@H]2C[C@]3(CCc4c(c(C(F)(F)F)nc5ccccc45)O3)CN2C1=O |  |  |  |  | ring closure, yield of all isomers ([1]; from C=CCCCCC[C@H](NC(=O)OC(C)(C)C)C(=O)N1C[C@@]2(CCc3c(c(C(F)(F)F)nc4ccccc34)O2)C[C@H]1C(=O)N[C@]1(C(=O)NS(=O)(=O)C2(C)CC2)C[C@H]1C=C, 2.94 mM, 75.0 °C): 73.4% |
| CCOC(=O)[C@@]12C[C@H]1C=CCCCCC[C@H](NC(=O)OC(C)(C)C)C(=O)N1C[C@@]3(CCc4c(c(C)nc5c(C(F)(F)F)cccc45)O3)C[C@H]1C(=O)N2 |  |  |  |  | ring closure, yield of all isomers ([1]; from C=CCCCCC[C@H](NC(=O)OC(C)(C)C)C(=O)N1C[C@@]2(CCc3c(c(C)nc4c(C(F)(F)F)cccc34)O2)C[C@H]1C(=O)N[C@]1(C(=O)OCC)C[C@H]1C=C, 3.36 mM, 65.0 °C, 3.0 h): 50% |
| CCOC(=O)[C@@]12C[C@H]1C=CCCCCC[C@H](NC(=O)OC(C)(C)C)C(=O)N1C[C@@]3(CCc4c(c(C)nc5c(F)cccc45)O3)C[C@H]1C(=O)N2 |  |  |  |  | ring closure, yield of all isomers ([1]; from C=CCCCCC[C@H](NC(=O)OC(C)(C)C)C(=O)N1C[C@@]2(CCc3c(c(C)nc4c(F)cccc34)O2)C[C@H]1C(=O)N[C@]1(C(=O)OCC)C[C@H]1C=C, 4.53 mM, 65.0 °C, 1.0 h): 48% |
| CCOC(=O)[C@@]12C[C@H]1C=CCCCCC[C@H](NC(=O)OC(C)(C)C)C(=O)N1C[C@@]3(CCc4c(c(C)nc5ccc(C)cc45)O3)C[C@H]1C(=O)N2 |  |  |  |  | ring closure, yield of all isomers ([1]; from C=CCCCCC[C@H](NC(=O)OC(C)(C)C)C(=O)N1C[C@@]2(CCc3c(c(C)nc4ccc(C)cc34)O2)C[C@H]1C(=O)N[C@]1(C(=O)OCC)C[C@H]1C=C, 3.55 mM, 65.0 °C, 3.0 h): 68% |
| CCOC(=O)[C@@]12C[C@H]1C=CCCCCC[C@H](NC(=O)OC(C)(C)C)C(=O)N1C[C@@]3(CCc4c(c(C5CCC5)nc5ccc(OC)cc45)O3)C[C@H]1C(=O)N2 |  |  |  |  | ring closure, yield of all isomers ([1]; from C=CCCCCC[C@H](NC(=O)OC(C)(C)C)C(=O)N1C[C@@]2(CCc3c(c(C4CCC4)nc4ccc(OC)cc34)O2)C[C@H]1C(=O)N[C@]1(C(=O)OCC)C[C@H]1C=C, 4.5 mM, 70.0 °C, 2.2 h): 72% |
| CCc1nc2ccc(OC)cc2c2c1O[C@]1(CC2)C[C@H]2C(=O)N[C@]3(C(=O)NS(=O)(=O)C4(C)CC4)C[C@H]3/C=C\CCCCC[C@H](NC(=O)c3cc(C)cs3)C(=O)N2C1 [Example 483, (2R,6S,12Z,13aS,14aR,16aS)-5′-ethyl-9′-methoxy-N-[(1-methylcyclopropyl)sulfonyl]-6-{[(4-methylthiophen-2-yl)carbonyl]amino}-5,16-dioxo-1,1′,2′,6,7,8,9,10,11,13a,14,15,16,16a-tetradecahydrospiro[cyclopropa[e]pyrrolo[1,2-a][1,4]diazacyclopentadecine-2,3′-pyrano[2,3-c]quinoline]-14a(5H)-carboxamide] | 0.438 | 8 | 0.0969 | 0.667 |  |
| CCc1nc2ccc(OCCCOC)cc2c2c1O[C@]1(CC2)C[C@H]2C(=O)N[C@]3(C(=O)NS(=O)(=O)C4(C)CC4)C[C@H]3/C=C\CCCCC[C@H](NC(=O)OCC(C)C)C(=O)N2C1 [Example 484, 2-methylpropyl [(2R,6S,12Z,13aS,14aR,16aS)-5′-ethyl-9′-(3-methoxypropoxy)-14a-{[(1-methylcyclopropyl)sulfonyl]carbamoyl}-5,16-dioxo-1,1′,2′,5,6,7,8,9,10,11,13a,14,14a,15,16,16a-hexadecahydrospiro[cyclopropa[e]pyrrolo[1,2-a][1,4]diazacyclopentadecine-2,3′-pyrano[2,3-c]quinolin]-6-yl]carbamate] |  |  |  | 0.628 | EC50 (HCV genotype 1b replicon; K+ salt): 0.357 nM; IC50 ([2]; K+ salt): 3 pM; IC50 ([3]; K+ salt): 0.164 nM |
| CCc1nc2ccc(OCCCOC)cc2c2c1O[C@]1(CC2)C[C@H]2C(=O)N[C@]3(C(=O)NS(=O)(=O)C4(C)CC4)C[C@H]3/C=C\CCCCC[C@H](NC(=O)OCC(C)(C)C)C(=O)N2C1 [Example 488, 2,2-dimethylpropyl [(2R,6S,12Z,13aS,14aR,16aS)-5′-ethyl-9′-(3-methoxypropoxy)-14a-{[(1-methylcyclopropyl)sulfonyl]carbamoyl}-5,16-dioxo-1,1′,2′,5,6,7,8,9,10,11,13a,14,14a,15,16,16a-hexadecahydrospiro[cyclopropa[e]pyrrolo[1,2-a][1,4]diazacyclopentadecine-2,3′-pyrano[2,3-c]quinolin]-6-yl]carbamate] |  |  |  | 0.486 | EC50 (HCV genotype 1b replicon; K+ salt): 0.412 nM; IC50 ([2]; K+ salt): 4 pM; IC50 ([3]; K+ salt): 0.136 nM |
| CC1(S(=O)(=O)NC(=O)[C@@]23C[C@H]2/C=C\CCCCC[C@H](NC(=O)OC2C[C@@H]4C[C@@H]4C2)C(=O)N2C[C@@]4(CCc5c(c(C(F)(F)F)nc6ccc(OCF)cc56)O4)C[C@H]2C(=O)N3)CC1 (stereo partly drawn) [Example 501, (1R,5S)-bicyclo[3.1.0]hex-3-yl [(2R,6S,12Z,13aS,14aR,16aS)-9′-(fluoromethoxy)-14a-{[(1-methylcyclopropyl)sulfonyl]carbamoyl}-5,16-dioxo-5′-(trifluoromethyl)-1,1′,2′,5,6,7,8,9,10,11,13a,14,14a,15,16,16a-hexadecahydrospiro[cyclopropa[e]pyrrolo[1,2-a][1,4]diazacyclopentadecine-2,3′-pyrano[2,3-c]quinolin]-6-yl]carbamate] |  |  |  | 0.206 | EC50 (HCV genotype 1b replicon; K+ salt): 3.7 nM; IC50 ([2]; K+ salt): 4 pM; IC50 ([3]; K+ salt): 0.6 nM |
| CCc1nc2ccc(OC)cc2c2c1O[C@]1(CC2)C[C@H]2C(=O)N[C@]3(C(=O)NS(=O)(=O)C4(C)CC4)C[C@H]3/C=C\CCCCC[C@H](NC(=O)O[C@H](C)C3CC3)C(=O)N2C1 [Example 502, (1R)-1-cyclopropylethyl [(2R,6S,12Z,13aS,14aR,16aS)-5′-ethyl-9′-methoxy-14a-{[(1-methylcyclopropyl)sulfonyl]carbamoyl}-5,16-dioxo-1,1′,2′,5,6,7,8,9,10,11,13a,14,14a,15,16,16a-hexadecahydrospiro[cyclopropa[e]pyrrolo[1,2-a][1,4]diazacyclopentadecine-2,3′-pyrano[2,3-c]quinolin]-6-yl]carbamate] | 0.29 | 4 | 0.121 | 0.48 |  |
| CC(C)COC(=O)N[C@H]1CCCCC/C=C\[C@@H]2C[C@@]2(C(=O)NS(=O)(=O)C2(C)CC2)NC(=O)[C@@H]2C[C@]3(CCc4c(c(C(F)(F)F)nc5ccc(OCCCN6CCOCC6)cc45)O3)CN2C1=O [Example 511, 2-methylpropyl [(2R,6S,12Z,13aS,14aR,16aS)-14a-{[(1-methylcyclopropyl)sulfonyl]carbamoyl}-9′-[3-(morpholin-4-yl)propoxy]-5,16-dioxo-5′-(trifluoromethyl)-1,1′,2′,5,6,7,8,9,10,11,13a,14,14a,15,16,16a-hexadecahydrospiro[cyclopropa[e]pyrrolo[1,2-a][1,4]diazacyclopentadecine-2,3′-pyrano[2,3-c]quinolin]-6-yl]carbamate] | 0.782 | 8 | 0.235 | 0.258 |  |
| CCc1nc2ccc(OCCCN3CCOCC3)cc2c2c1O[C@]1(CC2)C[C@H]2C(=O)N[C@]3(C(=O)NS(=O)(=O)C4(C)CC4)C[C@H]3/C=C\CCCCC[C@H](NC(=O)OC(C)(C)C)C(=O)N2C1 [Example 514, tert-butyl {(2R,6S,12Z,13aS,14aR,16aS)-5′-ethyl-14a-{[(1-methylcyclopropyl)sulfonyl]carbamoyl}-9′-[3-(morpholin-4-yl)propoxy]-5,16-dioxo-1,1′,2′,5,6,7,8,9,10,11,13a,14,14a,15,16,16a-hexadecahydrospiro[cyclopropa[e]pyrrolo[1,2-a][1,4]diazacyclopentadecine-2,3′-pyrano[2,3-c]quinolin]-6-yl}carbamate] | 0.668 | 12 | 0.0681 | 0.224 |  |
| CCc1nc2ccc(OCCN3CCOCC3)cc2c2c1O[C@]1(CC2)C[C@H]2C(=O)N[C@]3(C(=O)NS(=O)(=O)C4(C)CC4)C[C@H]3/C=C\CCCCC[C@H](NC(=O)OCC(C)C)C(=O)N2C1 [Example 515, 2-methylpropyl {(2R,6S,12Z,13aS,14aR,16aS)-5′-ethyl-14a-{[(1-methylcyclopropyl)sulfonyl]carbamoyl}-9′-[2-(morpholin-4-yl)ethoxy]-5,16-dioxo-1,1′,2′,5,6,7,8,9,10,11,13a,14,14a,15,16,16a-hexadecahydrospiro[cyclopropa[e]pyrrolo[1,2-a][1,4]diazacyclopentadecine-2,3′-pyrano[2,3-c]quinolin]-6-yl}carbamate] |  |  |  | 0.292 | EC50 (HCV genotype 1b replicon; HCl salt): 0.503 nM; IC50 ([2]; HCl salt): 5 pM; IC50 ([3]; HCl salt): 0.0575 nM |
